Results on ten molecules are retold here after US12673975B2, “Cyclic peptide, cell scaffold material, cell separating material, and medium” (FUJIFILM Corporation, priority 2019, dated 2026).

Series [1] can be described thus: Evaluation of molecule stability (alkali treatment, residual rate by LC/MS). The format is physicochemical. Particulars: for Performance evaluation: Stability (residual rate of cyclic peptide after alkali treatment): 500 μM peptide aqueous solution plus equivalent of 1 M sodium hydroxide, 15° C., 3 hours, LC/MS peak area; for Stability (molecule stability, residual rate of the cyclic peptide rank): alkali treatment, residual rate by LC/MS. Summed up: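 500 μM aqueous cyclic peptide mixed with an equal volume of 1 M NaOH and held 3 h at 15 °C. Residual rate is total LC/MS peak area after treatment relative to untreated (100%), using a C18 column, pH 3 ammonium formate/acetonitrile gradient, 45 °C, ESI±.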

Series [2] deals with human integrin αvβ5 (Homo sapiens, UniProt P06756+P18084). The series is described as follows: Evaluation of integrin binding property (surface plasmon resonance, Biacore 3000, immobilized cyclic peptide). In short, it runs like this: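 SPR with cyclic peptide amine-coupled via EDC/NHS to a CM5 chip, blank channel as reference. Integrin αvβ5 at 30, 100, 300 and 1,000 nM injected 10 min at 25 °C in HEPES buffer pH 7.4 with 5 mM MgCl2, 30 min buffer flow, EDTA regeneration; Kd from reference-subtracted signals, graded by category.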

[3] abbreviates: SPR, 25° C., HEPES buffer with 5 mM magnesium chloride, integrin 30-1,000 nM, read-out: Performance evaluation: Binding activity (dissociation constant between the cyclic peptide and human integrin αvβ5).
Where [4] appears, read: surface plasmon resonance, immobilized cyclic peptide, human integrin αvβ5, read-out: Binding activity (integrin binding property, dissociation constant rank).

Read-outs that look alike come from different tables or passages of the source. Starred links: 1 amine or outer side, 2 acyl side, 3 side chain; linkers in the order of their positions; H or OH if unused. Positions of bridges follow the written chain, without caps; N, C: chain ends. Non-standard residues stand in square brackets, D forms with d. Residues, ends and D or L forms follow the SMILES beside them. Pen = CC(C)(S)[C@H](N)C(=O)O; hCys = N[C@@H](CCS)C(=O)O; Dab = NCC[C@H](N)C(=O)O; X1 = O=C(C[*:2])[*:1]; X2 = O=C(C[*:1])[*:2]

human integrin αvβ5, sequence (P06756 31-1048): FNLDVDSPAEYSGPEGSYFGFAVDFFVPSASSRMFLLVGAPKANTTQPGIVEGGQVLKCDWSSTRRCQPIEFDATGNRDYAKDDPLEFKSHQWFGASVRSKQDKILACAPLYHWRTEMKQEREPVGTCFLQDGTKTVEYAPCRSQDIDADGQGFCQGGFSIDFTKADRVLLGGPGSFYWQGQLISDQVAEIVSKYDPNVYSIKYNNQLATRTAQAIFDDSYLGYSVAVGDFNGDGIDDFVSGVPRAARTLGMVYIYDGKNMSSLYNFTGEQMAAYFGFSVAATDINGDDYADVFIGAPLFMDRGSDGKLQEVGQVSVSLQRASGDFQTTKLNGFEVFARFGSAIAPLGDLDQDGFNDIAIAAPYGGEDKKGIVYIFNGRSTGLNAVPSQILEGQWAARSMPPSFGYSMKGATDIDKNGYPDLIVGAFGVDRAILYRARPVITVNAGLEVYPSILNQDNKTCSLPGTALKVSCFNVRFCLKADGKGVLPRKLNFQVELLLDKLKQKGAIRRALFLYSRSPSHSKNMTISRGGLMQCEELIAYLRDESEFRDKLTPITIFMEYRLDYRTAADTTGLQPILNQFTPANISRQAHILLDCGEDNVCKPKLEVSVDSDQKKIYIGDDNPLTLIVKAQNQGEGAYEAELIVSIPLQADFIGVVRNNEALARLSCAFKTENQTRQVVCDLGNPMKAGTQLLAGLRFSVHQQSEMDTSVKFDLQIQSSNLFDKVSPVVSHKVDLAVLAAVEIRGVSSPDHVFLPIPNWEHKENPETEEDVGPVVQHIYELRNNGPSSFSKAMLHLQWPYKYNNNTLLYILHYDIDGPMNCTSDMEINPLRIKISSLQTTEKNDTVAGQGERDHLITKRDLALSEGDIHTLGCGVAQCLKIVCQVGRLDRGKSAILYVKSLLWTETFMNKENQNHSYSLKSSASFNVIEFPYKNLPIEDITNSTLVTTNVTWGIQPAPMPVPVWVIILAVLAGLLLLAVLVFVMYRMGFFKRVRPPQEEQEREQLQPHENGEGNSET
human integrin αvβ5, sequence (P18084 24-799): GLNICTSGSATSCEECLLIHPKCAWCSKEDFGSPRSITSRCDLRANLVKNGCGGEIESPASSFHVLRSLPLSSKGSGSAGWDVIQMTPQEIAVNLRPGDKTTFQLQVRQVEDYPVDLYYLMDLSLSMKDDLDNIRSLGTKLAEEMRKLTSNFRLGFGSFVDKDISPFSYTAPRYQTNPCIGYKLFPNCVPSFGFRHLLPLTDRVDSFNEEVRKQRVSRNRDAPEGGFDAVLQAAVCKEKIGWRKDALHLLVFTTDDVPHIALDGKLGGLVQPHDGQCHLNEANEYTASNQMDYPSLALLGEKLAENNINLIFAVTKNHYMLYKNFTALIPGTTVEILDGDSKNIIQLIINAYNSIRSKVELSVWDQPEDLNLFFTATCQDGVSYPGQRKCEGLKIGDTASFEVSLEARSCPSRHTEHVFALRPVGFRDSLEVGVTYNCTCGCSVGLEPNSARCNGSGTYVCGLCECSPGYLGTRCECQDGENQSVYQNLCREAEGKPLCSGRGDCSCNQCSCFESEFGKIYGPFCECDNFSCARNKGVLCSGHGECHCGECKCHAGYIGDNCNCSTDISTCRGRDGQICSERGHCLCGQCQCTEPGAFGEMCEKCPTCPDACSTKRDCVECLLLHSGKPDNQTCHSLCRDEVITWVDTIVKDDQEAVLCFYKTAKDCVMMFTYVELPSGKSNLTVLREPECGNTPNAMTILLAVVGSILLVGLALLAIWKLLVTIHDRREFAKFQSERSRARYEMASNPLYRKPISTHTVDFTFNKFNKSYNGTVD

`CC(C)[C@@H]1NC(=O)[C@@H](NC(=O)[C@H](C)NC(=O)[C@H](CCCCN)NC(=O)[C@H](CCCCN)NC(=O)[C@@H](N)CCCCN)CCSCC(=O)NCC[C@@H](C(=O)N[C@@H](C)C(=O)O)NC(=O)[C@H](CCCNC(=N)N)NC(=O)[C@H](Cc2ccccc2)NC(=O)[C@H]([C@@H](C)O)NC(=O)[C@H](CC(=O)O)NC(=O)CNC(=O)[C@H](CCCNC(=N)N)NC(=O)[C@H]([C@@H](C)O)NC1=O` [Cyclic peptide 89, KKKA-(Hcy)-VTRGDTFR(Dab(acetyl))A] (H-KKKA[hCys]VTRGDTFR[Dab]A-OH; linker 5-14 via X2): in series [1], the “Performance evaluation: Stability (residual rate of cyclic peptide after alkali treatment)” value is reported as “A (The residual rate of the cyclic peptide is 70% or more.)”. Moreover, the Kd in series [2] (setting [3]) is less than 50 nM.
For `CC(C)[C@@H]1NC(=O)[C@@H](NC(=O)CNC(=O)[C@H](CCCCN)NC(=O)[C@H](CCCCN)NC(=O)[C@@H](N)CCCCN)CCSCC(=O)NCC[C@@H](C(=O)NCC(=O)O)NC(=O)[C@H](C)NC(=O)[C@H](Cc2ccccc2)NC(=O)[C@H](CO)NC(=O)[C@H](CC(=O)O)NC(=O)CNC(=O)[C@H](CCCNC(=N)N)NC(=O)[C@@H]2CCCN2C1=O` [Cyclic peptide 99, KKKG-(Hcy)-VPRGDSFA(Dab(acetyl))G] (H-KKKG[hCys]VPRGDSFA[Dab]G-OH; linker 5-14 via X2), the “Performance evaluation: Stability (residual rate of cyclic peptide after alkali treatment)” value in series [1] is given as “A (The residual rate of the cyclic peptide is 70% or more.)”. The Kd in series [2] (setting [3]) is less than 50 nM.
As to `N=C(N)NCCC[C@@H]1NC(=O)[C@H](Cc2ccc(O)cc2)NC(=O)[C@H](CC(N)=O)NC(=O)[C@H](CC(=O)O)NC(=O)CNC(=O)[C@H](CCCNC(=N)N)NC(=O)[C@@H]2CCCN2C(=O)[C@H](CCC(=O)O)NC(=O)[C@@H](NC(=O)[C@H](CC(=O)O)NC(=O)[C@H](CCCCN)NC(=O)[C@H](CCCCN)NC(=O)[C@@H](N)CCCCN)CCSCC(=O)NCC[C@@H](C(=O)N[C@@H](CC(=O)O)C(=O)O)NC1=O` [Cyclic peptide 38, KKKD-(Hcy)-EPRGDNYR(Dab(acetyl))D] (H-KKKD[hCys]EPRGDNYR[Dab]D-OH; linker 5-14 via X2), in series [1], the “Performance evaluation: Stability (residual rate of cyclic peptide after alkali treatment)” value is “A (The residual rate of the cyclic peptide is 70% or more.)”. Also, the Kd in series [2] (setting [3]) fell in the range of 50 to 100 nM.
On to `CC[C@H](C)[C@@H]1NC(=O)[C@@H](NC(=O)[C@H](C)NC(=O)[C@H](CCCCN)NC(=O)[C@H](CCCCN)NC(=O)[C@@H](N)CCCCN)CCNC(=O)CSC(C)(C)[C@@H](C(=O)N[C@@H](C)C(=O)O)NC(=O)[C@H](C)NC(=O)[C@H](Cc2ccccc2)NC(=O)[C@H](CO)NC(=O)[C@H](CC(=O)O)NC(=O)CNC(=O)[C@H](CCCNC(=N)N)NC(=O)[C@@H]2CCCN2C1=O` [Cyclic peptide 137, KKKA(Dab(acetyl))IPRGDSFA-(Pen)-A] (H-KKKA[Dab]IPRGDSFA[Pen]A-OH; linker 5-14 via X1), for which the “Stability (molecule stability, residual rate of the cyclic peptide rank)” value in series [1] is “A (The residual rate of the cyclic peptide is 70% or more.)”. The Kd in series [2] (setting [4]) is 50 to 100 nM.
Take `CC[C@H](C)[C@@H]1NC(=O)[C@@H](NC(=O)[C@H](CCCCN)NC(=O)[C@H](CCCCN)NC(=O)[C@@H](N)CCCCN)CCSCC(=O)NCC[C@@H](C(=O)N[C@@H](C)C(=O)O)NC(=O)[C@H](CCCNC(=N)N)NC(=O)[C@H](Cc2ccc(O)cc2)NC(=O)[C@H](CC(N)=O)NC(=O)[C@H](CC(=O)O)NC(=O)CNC(=O)[C@H](CCCNC(=N)N)NC(=O)[C@@H]2CCCN2C1=O` [Cyclic peptide 26, KKK-(Hcy)-IPRGDNYR(Dab(acetyl))A] (H-KKK[hCys]IPRGDNYR[Dab]A-OH; linker 4-13 via X2): the “Performance evaluation: Stability (residual rate of cyclic peptide after alkali treatment)” value in series [1] is “A (The residual rate of the cyclic peptide is 70% or more.)”. The Kd in series [2] (setting [3]) was 50 to 100 nM.
On to `CC[C@H](C)[C@@H]1NC(=O)[C@@H](NC(=O)[C@H](C)NC(=O)[C@H](CCCCN)NC(=O)[C@H](CCCCN)NC(=O)[C@@H](N)CCCCN)CCSCC(=O)NCC[C@@H](C(=O)O)NC(=O)[C@H](C)NC(=O)[C@H](Cc2ccccc2)NC(=O)[C@H](CO)NC(=O)[C@H](CC(=O)O)NC(=O)CNC(=O)[C@H](CCCNC(=N)N)NC(=O)[C@@H]2CCCN2C1=O` [Cyclic peptide 162, KKKA-(Hcy)-IPRGDSFA(Dab(acetyl))] (H-KKKA[hCys]IPRGDSFA[Dab]-OH; linker 5-14 via X2), for which, in series [1], the “Stability (molecule stability, residual rate of the cyclic peptide rank)” value was “A (The residual rate of the cyclic peptide is 70% or more.)”. Also, the Kd in series [2] (setting [4]) is less than 50 nM.
With `C[C@H](NC(=O)[C@H](CCCCN)NC(=O)[C@H](CCCCN)NC(=O)[C@@H](N)CCCCN)C(=O)N[C@H]1CCSCC(=O)NCC[C@@H](C(=O)N[C@@H](CC(=O)O)C(=O)O)NC(=O)[C@H](CC(=O)O)NC(=O)[C@H](Cc2ccc(O)cc2)NC(=O)[C@H](CC(N)=O)NC(=O)[C@H](CC(=O)O)NC(=O)CNC(=O)[C@H](CCCNC(=N)N)NC(=O)[C@@H]2CCCN2C(=O)[C@H](CCC(=O)O)NC1=O` [Cyclic peptide 35, KKKA-(Hcy)-EPRGDNYD(Dab(acetyl))D] (H-KKKA[hCys]EPRGDNYD[Dab]D-OH; linker 5-14 via X2), in series [1], the “Performance evaluation: Stability (residual rate of cyclic peptide after alkali treatment)” value is listed as “A (The residual rate of the cyclic peptide is 70% or more.)”. Further, in series [2] (setting [3]), the Kd is 100 to 200 nM.
The like results for `CC[C@H](C)[C@@H]1NC(=O)[C@@H](NC(=O)CNC(=O)[C@H](CCCCN)NC(=O)[C@H](CCCCN)NC(=O)[C@@H](N)CCCCN)CCSCC(=O)NCC[C@@H](C(=O)NCC(=O)O)NC(=O)[C@H](CCCNC(=N)N)NC(=O)[C@H](Cc2ccccc2)NC(=O)[C@H]([C@@H](C)O)NC(=O)[C@H](CC(=O)O)NC(=O)CNC(=O)[C@H](CCCNC(=N)N)NC(=O)[C@@H]2CCCN2C1=O` [Cyclic peptide 55, KKKG-(Hcy)-IPRGDTFR(Dab(acetyl))G] (H-KKKG[hCys]IPRGDTFR[Dab]G-OH; linker 5-14 via X2) were, in that order, “A (The residual rate of the cyclic peptide is 70% or more.)” and less than 50 nM.
Take `C[C@H](NC(=O)[C@@H]1CCNC(=O)CSCC[C@H](NC(=O)[C@H](CCCCN)NC(=O)[C@H](CCCCN)NC(=O)[C@@H](N)CCCCN)C(=O)N[C@@H](Cc2ccc(O)cc2)C(=O)N2CCC[C@H]2C(=O)N[C@@H](CCCNC(=N)N)C(=O)NCC(=O)N[C@@H](CC(=O)O)C(=O)N[C@@H](CC(N)=O)C(=O)N[C@@H](Cc2ccccc2)C(=O)N[C@@H](CCCNC(=N)N)C(=O)N1)C(=O)O` [Cyclic peptide 24, KKK-(Hcy)-YPRGDNFR(Dab(acetyl))A] (H-KKK[hCys]YPRGDNFR[Dab]A-OH; linker 4-13 via X2): in series [1], the “Performance evaluation: Stability (residual rate of cyclic peptide after alkali treatment)” value is “A (The residual rate of the cyclic peptide is 70% or more.)”. For the same molecule, the Kd in series [2] (setting [3]) is less than 50 nM.
With `CC[C@H](C)[C@@H]1NC(=O)[C@@H](NC(=O)CNC(=O)[C@H](CCCCN)NC(=O)[C@H](CCCCN)NC(=O)[C@@H](N)CCCCN)CCSCC(=O)NCC[C@@H](C(=O)O)NC(=O)[C@H](CCCNC(=N)N)NC(=O)[C@H](Cc2ccccc2)NC(=O)[C@H](CC(N)=O)NC(=O)[C@H](CC(=O)O)NC(=O)CNC(=O)[C@H](CCCNC(=N)N)NC(=O)[C@@H]2CCCN2C1=O` [Cyclic peptide 7, KKKG-(Hcy)-IPRGDNFR(Dab(acetyl))] (H-KKKG[hCys]IPRGDNFR[Dab]-OH; linker 5-14 via X2), in series [1], the “Performance evaluation: Stability (residual rate of cyclic peptide after alkali treatment)” value was “A (The residual rate of the cyclic peptide is 70% or more.)”. In addition, in series [2] (setting [3]), the Kd is less than 50 nM.
